Experimental findings from US20240246932A1 (Merck Sharp & Dohme LLC, priority 2021, published 2024) are described below.

In this experiment the target is human NaV 1.8 channels stably expressed in HEK 293 cells (Homo sapiens (Human), UniProt Q9Y5Y9). Put plainly: Nav1.8 Qube automated patch-clamp assay. In kind it is cell-based. The note with it: human NaV1.8 in HEK 293 cells, whole-cell voltage clamp, room temperature; read-out: IC50 values (nM) for Examples in the Nav1.8 Qube Assay. The method, boiled down:
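Whole-cell voltage clamp at room temperature on HEK293 cells; from −90 mV, a 10 s 1 Hz train of 20 ms pulses to 10 mV (repolarising to −67 mV) was applied. Peak currents at pulses 1 and 10 gave resting- and inactivated-state inhibition; IC50 fitted by Hill equation. Internal CsF/CsCl buffer.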
(The patch-clamp technique gives a direct electrical read-out from membranes.)

Sequence of human NaV 1.8 channels stably expressed in HEK 293 cells (Q9Y5Y9 whole entry): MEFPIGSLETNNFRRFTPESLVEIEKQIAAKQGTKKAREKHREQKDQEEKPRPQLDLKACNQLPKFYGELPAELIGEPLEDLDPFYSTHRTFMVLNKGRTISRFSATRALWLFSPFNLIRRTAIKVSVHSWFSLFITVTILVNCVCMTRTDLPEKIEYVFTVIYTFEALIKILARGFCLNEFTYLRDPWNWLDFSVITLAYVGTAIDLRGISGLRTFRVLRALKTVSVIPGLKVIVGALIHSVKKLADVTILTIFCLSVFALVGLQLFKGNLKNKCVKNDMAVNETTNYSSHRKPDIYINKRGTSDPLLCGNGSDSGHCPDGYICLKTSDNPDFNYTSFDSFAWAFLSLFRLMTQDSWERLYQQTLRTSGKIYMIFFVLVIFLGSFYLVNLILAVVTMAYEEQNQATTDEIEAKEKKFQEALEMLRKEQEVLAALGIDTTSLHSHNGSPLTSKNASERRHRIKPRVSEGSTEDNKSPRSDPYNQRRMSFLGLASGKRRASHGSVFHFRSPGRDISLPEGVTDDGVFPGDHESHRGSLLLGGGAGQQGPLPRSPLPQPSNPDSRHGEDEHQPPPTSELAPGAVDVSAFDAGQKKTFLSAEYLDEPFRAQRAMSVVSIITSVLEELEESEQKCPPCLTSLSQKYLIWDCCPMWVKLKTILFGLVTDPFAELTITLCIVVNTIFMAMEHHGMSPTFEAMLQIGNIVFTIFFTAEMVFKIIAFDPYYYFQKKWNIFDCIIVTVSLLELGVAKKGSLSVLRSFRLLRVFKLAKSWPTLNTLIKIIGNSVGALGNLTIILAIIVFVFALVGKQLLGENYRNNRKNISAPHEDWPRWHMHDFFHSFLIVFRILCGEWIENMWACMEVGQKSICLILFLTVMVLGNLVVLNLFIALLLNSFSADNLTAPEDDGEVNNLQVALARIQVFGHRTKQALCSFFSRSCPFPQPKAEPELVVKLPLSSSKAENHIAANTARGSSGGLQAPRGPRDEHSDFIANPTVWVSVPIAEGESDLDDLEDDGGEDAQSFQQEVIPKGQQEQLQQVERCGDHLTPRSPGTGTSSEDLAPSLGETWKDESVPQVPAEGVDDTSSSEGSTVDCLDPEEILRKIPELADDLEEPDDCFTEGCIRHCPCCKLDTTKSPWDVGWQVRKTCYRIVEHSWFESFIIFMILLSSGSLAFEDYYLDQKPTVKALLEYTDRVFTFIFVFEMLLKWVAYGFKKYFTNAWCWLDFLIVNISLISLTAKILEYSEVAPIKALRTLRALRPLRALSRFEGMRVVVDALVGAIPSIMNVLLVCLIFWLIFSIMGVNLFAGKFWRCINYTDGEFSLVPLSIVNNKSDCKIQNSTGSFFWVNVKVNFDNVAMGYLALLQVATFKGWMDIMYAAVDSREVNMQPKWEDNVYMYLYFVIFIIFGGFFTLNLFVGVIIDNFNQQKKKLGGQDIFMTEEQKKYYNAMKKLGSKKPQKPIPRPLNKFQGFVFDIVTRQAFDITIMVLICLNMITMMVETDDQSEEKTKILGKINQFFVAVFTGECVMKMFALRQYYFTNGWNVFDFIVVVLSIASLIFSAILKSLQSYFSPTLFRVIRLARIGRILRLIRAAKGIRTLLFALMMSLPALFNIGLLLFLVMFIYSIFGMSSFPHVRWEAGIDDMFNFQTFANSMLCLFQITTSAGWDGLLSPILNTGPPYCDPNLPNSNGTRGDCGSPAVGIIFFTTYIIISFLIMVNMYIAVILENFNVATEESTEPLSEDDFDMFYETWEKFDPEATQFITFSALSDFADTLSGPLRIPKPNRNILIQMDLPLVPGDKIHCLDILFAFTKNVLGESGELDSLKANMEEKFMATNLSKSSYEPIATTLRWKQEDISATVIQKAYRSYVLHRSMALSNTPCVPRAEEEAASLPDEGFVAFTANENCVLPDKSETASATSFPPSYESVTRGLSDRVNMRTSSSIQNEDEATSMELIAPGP

Take `C[C@@H]1C(=O)NCCN1C(=O)NC(c1cnc(C(F)(F)F)c(F)c1)c1ccc(F)c(Cl)c1F` (single isomer, unassigned) [Example 34, (2R)—N—((R or S)-(3-chloro-2,4-difluorophenyl)(5-fluoro-6-(trifluoromethyl)pyridin-3-yl)methyl)-2-methyl-3-oxopiperazine-1-carboxamide]: the IC50 came to 2.12 nM.
Take `C[C@@H]1C(=O)NCCN1C(=O)NC(c1ccnc(OCC(F)(F)F)c1)c1ccc(F)c(Cl)c1` (single isomer, unassigned) [Example 71B, (2R)-N-((S or R)-(3-chloro-4-fluorophenyl)(2-(2,2,2-trifluoro-ethoxy)pyridin-4-yl)methyl)-2-methyl-3-oxopiperazine-1-carboxamide]: the IC50 amounted to 2.76 nM.
In the case of `C[C@@H]1CN(C(=O)NC(c2ccc(F)c(Cl)c2)c2cccc(C(F)(F)F)n2)CC(=O)N1` (single isomer, unassigned) [Example 46B, (3R)-N-((S or R)-(3-chloro-4-fluoro-phenyl)(6-(trifluoro-methyl)pyridin-2-yl)methyl)-3-methyl-5-oxopiperazine-1-carboxamide], the IC50 is 506 nM.
Turning to `C[C@H]1CN(C(=O)NC(c2ccc(F)c(Cl)c2)c2cccc(C(F)(F)F)n2)CC(=O)N1` (single isomer, unassigned) [Example 46A, (3S)-N-((R or S)-(3-chloro-4-fluoro-phenyl)(6-(trifluoro-methyl)pyridin-2-yl)methyl)-3-methyl-5-oxopiperazine-1-carboxamide], the IC50 was found to be 924 nM.
Under `C[C@@H]1C(=O)NCCN1C(=O)NC(c1ccc(Cl)cc1)c1ccnc(C(F)(F)F)n1` (single isomer, unassigned) [Example 68A] stands 34.9 nM; under `C[C@@H]1C(=O)NCCN1C(=O)NC(c1ccc(F)c(Cl)c1)c1cccc(OC(F)F)n1` (single isomer, unassigned) [Example 72B], 25.3 nM; under `C[C@@H]1C(=O)NCCN1C(=O)NC(c1ccc(OCC(F)(F)F)cc1)c1ccc(F)c(C(F)(F)F)n1` (single isomer, unassigned) [Example 57B, (2R)-N-((S or R)-(5-fluoro-6-(trifluoro-methyl)pyridin-2-yl)(4-(2,2,2-trifluoro-ethoxy)phenyl)methyl)-2-methyl-3-oxopiperazine-1-carboxamide], 125 nM.
The figure for `C[C@@H]1C(=O)NCCN1C(=O)NC(c1cnc(C(F)(F)F)c(Cl)c1)c1ccc(F)c(Cl)c1F` (single isomer, unassigned) [Example 35, (2R)-N-((R or S)-(3-chloro-2,4-difluorophenyl)(5-chloro-6-(trifluoromethyl)pyridin-3-yl)methyl)-2-methyl-3-oxopiperazine-1-carboxamide] is 1.13 nM; for `O=C1CN(C(=O)NC(c2ccc(F)c(Cl)c2)c2cccc(C(F)(F)F)n2)[C@@H](CF)CN1` (single isomer, unassigned) [Example 47A, (2R)-N-((R or S)-(3-chloro-4-fluoro-phenyl)(6-(trifluoro-methyl)pyridin-2-yl)methyl)-2-(fluoromethyl)-5-oxopiperazine-1-carboxamide] it is 2310 nM; for `C[C@@H]1C(=O)NCCN1C(=O)NC(c1cnc(C(F)(F)F)c(Cl)c1)c1csc(C(F)(F)F)n1` (single isomer, unassigned) [Example 84B, (2R)-N-((S or R)-(5-chloro-6-(trifluoromethyl)pyridin-3-yl)(2-(trifluoromethyl)thiazol-4-yl)methyl)-2-methyl-3-oxopiperazine-1-carboxamide] it is 202 nM.
Take `C[C@@H]1C(=O)NCCN1C(=O)NC(c1ccc(C(F)(F)F)nc1)c1ccc(Cl)c(Cl)c1F` (single isomer, unassigned) [Example 29B]: the IC50 amounted to 3.42 nM.
`O=C1NCCN(C(=O)NC(c2cnc(C(F)(F)F)nc2)c2ccc(F)c(Cl)c2F)C1C1CC1` (single isomer, unassigned) [Example 41B, N-((R or S)-(3-chloro-2,4-difluorophenyl)(2-(trifluoromethyl)pyrimidin-5-yl)methyl)-(S or R)-2-cyclopropyl-3-oxopiperazine-1-carboxamide]: the IC50 came to 4.94 nM.
Consider `C[C@@H]1C(=O)NCCN1C(=O)NC(c1ccc(C2CC2)nc1)c1ccc(F)c(Cl)c1F` (single isomer, unassigned) [Example 33A, (2R)-N-((R or S)-(3-chloro-2,4-difluoro-phenyl)(6-cyclo-propylpyridin-3-yl)methyl)-2-methyl-3-oxopiperazine-1-carboxamide], for which the IC50 amounted to 14.4 nM.
Consider `CC(C)C1C(=O)NCCN1C(=O)NC(c1ccc(C(F)(F)F)nc1)c1ccc(F)c(Cl)c1F` (single isomer, unassigned) [Example 39B, N-((R or S)-(3-chloro-2,4-difluorophenyl)(6-(trifluoromethyl)pyridin-3-yl)methyl)-(S or R)-2-isopropyl-3-oxo-piperazine-1-carboxamide], for which the half-maximal inhibitory concentration (IC50) came out at 15.2 nM.
For the compound `C[C@@H]1C(=O)NCCN1C(=O)NC(c1ccc(Cl)c(F)c1)c1ccc(F)c(C(F)(F)F)n1` (single isomer, unassigned) [Example 53B, (2R)-N-((S or R)-(4-chloro-3-fluoro-phenyl)(5-fluoro-6-(trifluoromethyl)pyridin-2-yl)methyl)-2-methyl-3-oxopiperazine-1-carboxamide], the IC50 was determined as 1.38 nM.
With `C[C@@H]1C(=O)NCCN1C(=O)NC(c1ccc(F)c(Cl)c1)c1ccn(C(F)F)n1` (single isomer, unassigned) [Example 66A], the IC50 was 125 nM.
Consider `CCC1C(=O)NCCN1C(=O)NC(c1ccc(C(F)(F)F)nc1)c1ccc(F)c(Cl)c1F` (single isomer, unassigned) [Example 40A, N-((R or S)-(3-chloro-2,4-difluorophenyl)(6-(trifluoromethyl)pyridin-3-yl)methyl)-(R or S)-2-ethyl-3-oxopiperazine-1-carboxamide], for which the 50% inhibitory concentration (IC50) was found to be 729 nM.
For the compound `C[C@@H]1C(=O)NCCN1C(=O)NC(c1ccc(C(F)(F)F)nc1)c1ccc(Cl)c(Cl)c1` (single isomer, unassigned) [Example 18A, (2R)-N-((R or S)-(3,4-dichlorophenyl)(6-(trifluoromethyl)pyridin-3-yl)methyl)-2-methyl-3-oxopiperazine-1-carboxamide], the 50% inhibitory concentration (IC50) amounted to 3.89 nM.
Regarding `O=C1CN(C(=O)NC(c2ccc(OCC(F)(F)F)nc2)c2ccc(F)c(Cl)c2)CCN1` (single isomer, unassigned) [Example 2B, N-((S or R)-(3-chloro-4-fluorophenyl)(6-(2,2,2-trifluoroethoxy)pyridin-3-yl)methyl)-3-oxopiperazine-1-carboxamide], the IC50 was 123 nM.
Under `C[C@@H]1C(=O)NCCN1C(=O)NC(c1ccc(F)c(Cl)c1)c1cnc(C(F)(F)F)c(Cl)c1` (single isomer, unassigned) [Example 26A, (2R)-N-((R or S)-(3-chloro-4-fluoro-phenyl)(5-chloro-6-(trifluoromethyl)pyridin-3-yl)methyl)-2-methyl-3-oxopiperazine-1-carboxamide] stands 1.89 nM; under `C[C@@H]1C(=O)NCCN1C(=O)NC(c1ccc(C#N)cc1)c1ccc(Cl)c(C(F)(F)F)n1` (single isomer, unassigned) [Example 76B], 167 nM.

As usually defined, the IC50 is the concentration that gives 50% inhibition.
